Tests used:
Format in all cases: in vivo
[1] = test system: sicklepod (Cassia obtusifolia, CASOB); experiment: Pre-emerge test, greenhouse herbicide activity screening; conditions: pre-emerge, rated 14 days after application, 0 = no damage, 100 = complete death
Method in brief: (§1)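 Sandy loam pots; pre-emerge: sown 1 d pre-spray, surface-watered after, then bottom-watered. Post-emerge: sown 8–21 d before, 2–3 leaf stage, + 0.25% v/v NIS, bottom-watered. Acetone, 187 l/ha track spray, 15–1000 g ai/ha. 0–100 injury score, day 14.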

[2] = test system: ivyleaf morningglory (Ipomoea hederacea, IPOHE); experiment: as above; conditions: pre-emerge, rated 14 days after application, 0 = no damage, 100 = complete death
Method in brief: as §1

[3] = test system: barnyardgrass (Echinochloa crus-galli, ECHCG); experiment: as above; conditions: pre-emerge, rated 14 days after application, 0 = no damage, 100 = complete death
Method in brief: as §1

[4] = test system: lambsquarters (Chenopodium album, CHEAL); experiment: as above; conditions: pre-emerge, rated 14 days after application, 0 = no damage, 100 = complete death
Method in brief: as §1

[5] = test system: johnsongrass (Sorghum halepense, SORHA); experiment: as above; conditions: pre-emerge, rated 14 days after application, 0 = no damage, 100 = complete death
Method in brief: as §1

[6] = test system: velvetleaf (Abutilon theophrasti, ABUTH); experiment: as above; conditions: pre-emerge, rated 14 days after application, 0 = no damage, 100 = complete death
Method in brief: as §1

[7] = test system: green foxtail (Setaria viridis, SETVI); experiment: as above; conditions: pre-emerge, rated 14 days after application, 0 = no damage, 100 = complete death
Method in brief: as §1

[8] = test system: common ragweed (Ambrosia artemisizfolia L., AMBEL); experiment: as above; conditions: pre-emerge, rated 14 days after application, 0 = no damage, 100 = complete death
Method in brief: as §1

[9] = test system: large crabgrass (Digitaria sanguinalis, DIGSA); experiment: as above; conditions: pre-emerge, rated 14 days after application, 0 = no damage, 100 = complete death
Method in brief: as §1

[10] = test system: field corn (Zea mays L., var. Dekalb 535, CORN); experiment: Pre-emerge test, crop safety; conditions: pre-emerge, rated 14 days after application, 0 = no damage, 100 = complete death
Method in brief: (§2)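 Compounds in acetone were track-sprayed at 187 l/ha, 15–1000 g ai/ha, onto sandy loam pots. Pre-emerge seeds were sown one day before spraying, with surface watering afterwards. Post-emerge plants were at the 2–3 leaf stage and sprayed with 0.25% v/v non-ionic surfactant. Injury was rated 0–100 at 14 days.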

[11] = test system: upland rice (Oryza sp., var. Tebonnet, RICE); experiment: Pre-emerge test, crop safety; conditions: pre-emerge, rated 14 days after application, 0 = no damage, 100 = complete death
Method in brief: as §2

[12] = test system: sicklepod (Cassia obtusifolia, CASOB); experiment: Post-emerge test, greenhouse herbicide activity screening; conditions: phytotoxicity rating 0-100 (0 no damage, 100 complete death), 14 days after application
Method in brief: (§3)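 Compounds in acetone were track-sprayed at 15-1000 g ai/ha (187 l/ha) on sandy loam pots: pre-emerge one day after seeding, post-emerge at 2-3 leaf stage with 0.25% v/v non-ionic surfactant. Phytotoxicity was rated 14 days later on a 0 (no damage) to 100 (complete death) scale.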

[13] = test system: ivyleaf morningglory (Ipomoea hederacea, IPOHE); experiment: as above; conditions: phytotoxicity rating 0-100 (0 no damage, 100 complete death), 14 days after application
Method in brief: as §3

[14] = test system: barnyardgrass (Echinochloa crus-galli, ECHCG); experiment: as above; conditions: phytotoxicity rating 0-100 (0 no damage, 100 complete death), 14 days after application
Method in brief: as §3

[15] = test system: lambsquarters (Chenopodium album, CHEAL); experiment: as above; conditions: phytotoxicity rating 0-100 (0 no damage, 100 complete death), 14 days after application
Method in brief: as §3

[16] = test system: redroot pigweed (Amaranthus retroflexus, AMARE); experiment: as above; conditions: phytotoxicity rating 0-100 (0 no damage, 100 complete death), 14 days after application
Method in brief: as §3

[17] = test system: johnsongrass (Sorghum halepense, SORHA); experiment: as above; conditions: phytotoxicity rating 0-100 (0 no damage, 100 complete death), 14 days after application
Method in brief: as §3

[18] = test system: velvetleaf (Abutilon theophrasti, ABUTH); experiment: as above; conditions: phytotoxicity rating 0-100 (0 no damage, 100 complete death), 14 days after application
Method in brief: as §3

[19] = test system: green foxtail (Setaria viridis, SETVI); experiment: as above; conditions: phytotoxicity rating 0-100 (0 no damage, 100 complete death), 14 days after application
Method in brief: as §3

[20] = test system: common ragweed (Ambrosia artemisizfolia L., AMBEL); experiment: as above; conditions: phytotoxicity rating 0-100 (0 no damage, 100 complete death), 14 days after application
Method in brief: as §3

[21] = test system: large crabgrass (Digitaria sanguinalis, DIGSA); experiment: as above; conditions: phytotoxicity rating 0-100 (0 no damage, 100 complete death), 14 days after application
Method in brief: as §3

[22] = test system: field corn (Zea mays L., var. Dekalb 535, CORN); experiment: Post-emerge test, crop safety; conditions: phytotoxicity rating 0-100 (0 no damage, 100 complete death), 14 days after application
Method in brief: as §1

[23] = test system: upland rice (Oryza sp., var. Tebonnet, RICE); experiment: Post-emerge test, crop safety; conditions: phytotoxicity rating 0-100 (0 no damage, 100 complete death), 14 days after application
Method in brief: as §1

[24] = test system: redroot pigweed (Amaranthus retroflexus, AMARE); experiment: Pre-emerge test, greenhouse herbicide activity screening; conditions: pre-emerge, rated 14 days after application, 0 = no damage, 100 = complete death
Method in brief: as §3

For `COc1c(Cl)cc(F)c(-n2c(=O)cc(C(F)(F)F)n(C)c2=O)c1NC(C)=O` [2-1], the “Pre-emerge Herbicidal Activity CASOB (phytotoxicity rating, scale 0-100)” value ([1]; 63 g ai/ha) was 80, the “Pre-emerge Herbicidal Activity CASOB (phytotoxicity rating, scale 0-100)” value ([1]; 250 g ai/ha) was 100 and the “Pre-emerge Herbicidal Activity IPOHE (phytotoxicity rating, scale 0-100)” value ([2]; 63 g ai/ha) was 95. The “Pre-emerge Herbicidal Activity IPOHE (phytotoxicity rating, scale 0-100)” value ([2]; 250 g ai/ha) was 100, the “Pre-emerge Herbicidal Activity ECHCG (phytotoxicity rating, scale 0-100)” value ([3]; 63 g ai/ha) was 10 and the “Pre-emerge Herbicidal Activity ECHCG (phytotoxicity rating, scale 0-100)” value ([3]; 250 g ai/ha) was 70. For the same compound, the “Pre-emerge Herbicidal Activity CHEAL (phytotoxicity rating, scale 0-100)” value ([4]; 63 g ai/ha) was 90, the “Pre-emerge Herbicidal Activity CHEAL (phytotoxicity rating, scale 0-100)” value ([4]; 250 g ai/ha) was 100 and the “Pre-emerge Herbicidal Activity SORHA (phytotoxicity rating, scale 0-100)” value ([5]; 63 g ai/ha) was 30. The “Pre-emerge Herbicidal Activity SORHA (phytotoxicity rating, scale 0-100)” value ([5]; 250 g ai/ha) was 70, the “Pre-emerge Herbicidal Activity ABUTH (phytotoxicity rating, scale 0-100)” value ([6]; 63 g ai/ha) was 100 and the “Pre-emerge Herbicidal Activity ABUTH (phytotoxicity rating, scale 0-100)” value ([6]; 250 g ai/ha) was 100. For the same compound, the “Pre-emerge Herbicidal Activity SETVI (phytotoxicity rating, scale 0-100)” value ([7]; 63 g ai/ha) was 80, the “Pre-emerge Herbicidal Activity SETVI (phytotoxicity rating, scale 0-100)” value ([7]; 250 g ai/ha) was 95 and the “Pre-emerge Herbicidal Activity AMBEL (phytotoxicity rating, scale 0-100)” value ([8]; 63 g ai/ha) was 50. The “Pre-emerge Herbicidal Activity AMBEL (phytotoxicity rating, scale 0-100)” value ([8]; 250 g ai/ha) was 100, the “Pre-emerge Herbicidal Activity DIGSA (phytotoxicity rating, scale 0-100)” value ([9]; 63 g ai/ha) was 20 and the “Pre-emerge Herbicidal Activity DIGSA (phytotoxicity rating, scale 0-100)” value ([9]; 250 g ai/ha) was 100. The “Pre-emerge crop damage CORN (phytotoxicity rating, scale 0-100)” value ([10]; 63 g ai/ha) was 30, the “Pre-emerge crop damage CORN (phytotoxicity rating, scale 0-100)” value ([10]; 250 g ai/ha) was 80 and the “Pre-emerge crop damage RICE (phytotoxicity rating, scale 0-100)” value ([11]; 63 g ai/ha) was 80. The “Pre-emerge crop damage RICE (phytotoxicity rating, scale 0-100)” value ([11]; 250 g ai/ha) was 90, the “Post-emerge Herbicidal Activity CASOB” value ([12]; 63 g ai/ha) was 50 and the “Post-emerge Herbicidal Activity CASOB” value ([12]; 250 g ai/ha) was 100. For the same compound, the “Post-emerge Herbicidal Activity IPOHE” value ([13]; 63 g ai/ha) was 100, the “Post-emerge Herbicidal Activity IPOHE” value ([13]; 250 g ai/ha) was 100 and the “Post-emerge Herbicidal Activity ECHCG” value ([14]; 63 g ai/ha) was 0. For the same compound, the “Post-emerge Herbicidal Activity ECHCG” value ([14]; 250 g ai/ha) was 10, the “Post-emerge Herbicidal Activity CHEAL” value ([15]; 63 g ai/ha) was 95 and the “Post-emerge Herbicidal Activity CHEAL” value ([15]; 250 g ai/ha) was 100. For the same compound, the “Post-emerge Herbicidal Activity AMARE” value ([16]; 63 g ai/ha) was 50, the “Post-emerge Herbicidal Activity AMARE” value ([16]; 250 g ai/ha) was 100 and the “Post-emerge Herbicidal Activity SORHA” value ([17]; 63 g ai/ha) was 0. The “Post-emerge Herbicidal Activity SORHA” value ([17]; 250 g ai/ha) was 0, the “Post-emerge Herbicidal Activity ABUTH” value ([18]; 63 g ai/ha) was 100 and the “Post-emerge Herbicidal Activity ABUTH” value ([18]; 250 g ai/ha) was 100. The “Post-emerge Herbicidal Activity SETVI” value ([19]; 63 g ai/ha) was 0, the “Post-emerge Herbicidal Activity SETVI” value ([19]; 250 g ai/ha) was 30 and the “Post-emerge Herbicidal Activity AMBEL” value ([20]; 63 g ai/ha) was 30. The “Post-emerge Herbicidal Activity AMBEL” value ([20]; 250 g ai/ha) was 85, the “Post-emerge Herbicidal Activity DIGSA” value ([21]; 63 g ai/ha) was 0 and the “Post-emerge Herbicidal Activity DIGSA” value ([21]; 250 g ai/ha) was 0. For the same compound, the “Post-emerge Herbicidal Activity CORN (crop damage)” value ([22]; 63 g ai/ha) was 10, the “Post-emerge Herbicidal Activity CORN (crop damage)” value ([22]; 250 g ai/ha) was 15 and the “Post-emerge Herbicidal Activity RICE (crop damage)” value ([23]; 63 g ai/ha) was 30. For the same compound, the “Post-emerge Herbicidal Activity RICE (crop damage)” value ([23]; 250 g ai/ha) was 70, the “Pre-emerge Herbicidal Activity AMARE (phytotoxicity rating, scale 0-100)” value ([24]; 63 g ai/ha) was 60 and the “Pre-emerge Herbicidal Activity AMARE (phytotoxicity rating, scale 0-100)” value ([24]; 250 g ai/ha) was 100.

From US6355799B1, “Substituted benzene compounds, process for their preparation, and herbicidal and defoliant compositions containing them” (ISK Americas Incorporated, priority 1997, dated 2002)
